Data set [1] is described as follows: Surface tension, hanging drop tensiometer. It is filed as physicochemical. Particulars: 25 °C; for Surface tension (γ) at CMC: estimated error 1 mNm^−1; for CMC obtained by surface tension (CMCγ): estimated error 10%; for Area per molecule (Am): Gibbs adsorption isotherm using n = 1, estimated error 15%. The procedure: Surface tension was measured at 25 °C using a homemade hanging drop tensiometer. Samples were hanged from a straight-cut Teflon tube and the size and shape were obtained from pictures as a function of time. Surface tension was obtained from fitting the drop profile to the appropriate Young-Laplace equations. See Sorrenti et al. for more details. From a concentrated clear solution, successive dilutions were made to cover the adequate range of surface tension changes. The surface tension of […]14 was measured in three pH conditions: (a) unbuffered, using water as solvent, (b) buffered at pH = 2, using 10 mM HCl solution to prepare the concentrated sample and their dilutions and (c) buffered at pH = 12, using 10 mM […] to prepare the concentrated solution and their dilutions.

A short description of data set [2]: Pyrene fluorescence (II/IIII ratio) CMC determination. The class given is physicochemical. The conditions noted are these: pyrene probe, 25 °C; estimated error 10%. As for the experimental part: Fluorescence measurements were carried out using a Shimadzu RF 540 spectrofluorometer (Shimadzu, Kyoto, Japan). Pyrene (Sigma-Aldrich, San Luis, MO, USA) was utilized as a fluorescence probe at 25 °C. From a 5 mM solution of catanionic formulations prepared in a pyrene aqueous solution (10^−6 M), different dilutions were prepared. The fluorescence emission spectra of these binary mixtures were acquired from 340 to 450 nm after excitation at 332 nm. The ratio of the first to the third vibronic peaks (II/IIII) in the emission spectra of pyrene is sensitive to the polarity of the microenvironment and the CMC can be calculated from plots of II/IIII as a function of surfactant concentration.

Data set [3] has as its system Escherichia coli ATCC 25922. In words: Broth microdilution MIC. It is filed as cell-based. The conditions noted are these: 24 h, 37 °C, total surfactant concentration.
In data set [4] the test system is Bacillus subtilis ATCC 6633. Put plainly: Broth microdilution MIC. The class given is cell-based. The conditions noted are these: 24 h, 37 °C, total surfactant concentration. As for the experimental part:
(§1) Antibacterial assays were conducted in vitro using the broth microdilution method. The minimum inhibitory concentration (MIC) is the smallest concentration of antibacterial agent at which bacterial growth is not observed. MIC values were determined for 4 Gram-positive bacteria (methicillin-resistant Staphylococcus aureus ATCC 43300 (MRSA), Bacillus subtilis ATCC 6633, Kocuria rhizophila 9341, Staphylococcus epidermidis ATCC 12228), 3 Gram-negative bacteria (Klebsiella pneumoniae ATCC 4532, Pseudomonas aeruginosa ATCC 27853, Escherichia coli ATCC 8739) and the fungal strain, Candida albicans ATCC 10231. Frozen stocks of bacteria were incubated on Muller Hinton agar plates for 24 h at 37 °C. From this culture, a bacterial suspension of 1 × 10^6 colony forming units CFU/mL was prepared in MHB (pH = 7.3). Two dilutions of pure surfactants and their binary mixtures were prepared in MH broth to obtain a final concentration ranging from 4 to 454 μM in the microtiter plates.
(§2) Then, 10 μL of nutrient broth culture of each microorganism was added to achieve a final density of ca. 5 × 10^5 CFU/mL. The cultures were incubated for 24 h at 37 °C. Every assay was repeated three times.
A general note: Dilution methods test growth across graded concentrations, often in twofold steps.

The subject of data set [5] is Candida albicans ATCC 10231. In words: Broth microdilution MIC. It is filed as cell-based. Particulars: 24 h, 37 °C, total surfactant concentration. As for the experimental part:
as §1, §2

Data set [6] has as its system Kocuria rhizophila ATCC 9341. Put plainly: Broth microdilution MIC. It is filed as cell-based. The conditions noted are these: 24 h, 37 °C, total surfactant concentration. As for the experimental part:
as §1, §2

The subject of data set [7] is Pseudomonas aeruginosa ATCC 27853. Put plainly: Broth microdilution MIC. The class given is cell-based. Particulars: 24 h, 37 °C, total surfactant concentration. The procedure:
as §1, §2

Data set [8] concerns Staphylococcus epidermidis ATCC 12228. In words: Broth microdilution MIC. It is filed as cell-based. The conditions noted are these: 24 h, 37 °C, total surfactant concentration. The procedure:
as §1, §2

The test system of a further data set is erythrocytes. It is filed as cell-based, rabbit. As for the experimental part: The erythrocytes, taken from rabbit blood samples, were washed three times in PBS (pH 7.4) and resuspended in PBS at a cell density of 8 × 10^9 cells/mL. The hemolytic activity of the catanionic formulations used in this work was carried out using the procedure described by Pape et al. with minor modifications. A series of different volumes of a concentrated solution (1000 μM for the general case and 5000 μM for the 20:80 and cholesterol-containing formulations) of the catanionic formulation (10–80 μL) were placed in polystyrene tubes containing 25 μL of the prepared erythrocyte suspension and PBS buffer was added to each tube to a total volume of 1 mL. The resulted solutions were incubated at room temperature and shaken for 10 min and the tubes were then centrifuged (5 min at 10,000 rpm). The hemolysis (%) was calculated by comparing the absorbance (540 nm) of the supernatant of the solutions with that of Milli-Q water (control 100% hemolysis) and PBS buffer solution (control, 0% hemolysis).

A further data set has as its system HaCaT cell line. Put plainly: NRU cell viability assay. The conditions noted are these: 24 h. The class given is cell-based, human. The procedure:
The murine Swiss albino fibroblast (3T3), the squamous carcinoma (A431), the immortal human keratinocyte (HaCaT) and the human epithelial carcinoma (HeLa) cell lines were obtained from Celltec UB. Cells were grown in Dulbecco’s Modified Eagle’s Medium (DMEM) (4.5 g/L glucose) supplemented with 10% (v/v) fetal bovine serum (FBS), 1% (v/v) L-glutamine solution (200 mM) and 1% (v/v) penicillin-streptomycin solution (10,000 U/mL penicillin and 10 mg/mL streptomycin) at 37 °C and 5% CO2 (CO2 Incubator Nuaire, Plymouth, MN, USA). All the biological materials were purchased from Lonza (Verviers, Belgium). Cells were cultured in 75 cm^2 culture flasks (TPP, Trasadingen, Switzerland) and were routinely split using trypsin-EDTA (ethylenediaminetetraacetate) solution (170,000 U/L trypsin and 0.2 g/L EDTA) (Lonza, Verviers, Belgium) when cells are approximately 80% confluent. 3T3 and HaCaT cells (1 × 10^5 cells/ mL) and HeLa and A431 cells (5 × 10^4 cells/mL) were grown at the defined densities into the central 60 wells of a 96-well plate. Cells were incubated for 24 h under 5% CO2 at 37 °C. […] Agitation, determination of the absorbance of the extracted solution and effect of each treatment in comparison with control cells were analogous of those described in the case of the MTT method.

Details of data set [9]: method as in PMID 17319702. The conditions noted are these: cited from earlier work.
The mark [10] stands for this setting: 10 mM NaCl CO2 saturated solution.

The values below come from article PMC7727793, “Aggregation Behavior, Antibacterial Activity and Biocompatibility of Catanionic Assemblies Based on Amino Acid-Derived Surfactants” (International Journal of Molecular Sciences, 2020).

Bounds are passed on as bounds.

A word on the MIC: it is the lowest concentration found to suppress growth. Low values mean a more susceptible organism, high ones a less susceptible organism. Usually IC50 stands for the concentration that gives 50% inhibition. “N(π),N(τ)-bis(methyl)-L-Histidine tetradecyl amide [DMHNHC14]”: the “Surface tension (γ) at CMC” value in data set [1] is given as 33 mNm^−1. Further, the “CMC obtained by surface tension (CMCγ)” value in [1] is reported as 5.2 mM. For the same compound, the “Area per molecule (Am)” value in [1] is recorded as 0.57 nm^2. For the same compound, in data set [2], the “CMC obtained by Fluorescence (CMCF)” value is listed as 3.8 mM. In addition, the MIC in data set [3] was 113 µM; in data set [4], 28 µM; in [5] it was 28 µM; in [6], 28 µM; in data set [7], 227 µM; in [8], 14 µM. Besides, in the data set on erythrocytes, the Hemolytic activity result is “increases with the dose”. This compound displayed an IC50 with HaCaT cell line of 45.7 µM.

Turning to `CCCCCCCCCCCCCC(=O)O` [Sodium myristate, sodium myristate], in data set [1], the “Surface tension (γ) at CMC” value is reported as 24 mNm^−1, the “CMC obtained by surface tension (CMCγ)” value was 5.0 ^7 mM and the “Area per molecule (Am)” value is 1.0 nm^2. Moreover, the “CMC obtained by Fluorescence (CMCF)” value in data set [2] was 0.90 mM. Further, in the data set on HaCaT cell line (Homo sapiens), the half-inhibitory concentration (IC50) is more than 50 µM. Further, in [9] (setting [10]), the “Concentration at which surface tension stabilizes” value is on record as “around 0.3 mM” and the Limiting surface tension entry is given as “about 25 mNm^−1”. Besides, the “Surface tension at CMC” value in [9] (basic conditions) is “about 40 mNm^−1”. The CMC in data set [9] (basic media) was 3 mM.
